Results as given in patent US20020091131A1, “Epoxysuccinamide derivatives” (priority 1997, published 2002).

What was measured:
Cathepsin L = target: T1, Cathepsin L (Rattus norvegicus, UniProt P07154); assay: Cathepsin L inhibitory action (rat liver lysosome fraction, Z-Phe-Arg-MCA, in presence of CA-074); assay type: biochemical; conditions: pH 5.5, 30° C., with 10^-7 M CA-074, read-out: Cathepsin Inhibition (IC50) Cathepsin L
T1 construct: Thus, a lysosome fraction was obtained; from tissue; host or cells: liver of male Wistar rat, crude lysosome fraction
Protocol: (§1) Male rat of Wistar strain was killed by exsanguination and a ice-chilled physiological saline was introduced into portal vein for circulation Then, its liver was taken out. Thereafter, the following procedures were performed at 4°C.
(§2) The liver was minced by scissors. Five grams of minced liver were homogenized in a Potter type Teflon Homogenizer after addition of 9 volumes of 0.25 M sucrose. The homogenate was centrifuged at 800 G for 10 minutes. The resulting supernatant was further centrifuged at 12,000 G for 20 minutes. The precipitate was homogenized in 25 mL of 0.25 M sucrose, and then centrifuged at 12,000 G for 20 minutes. The resulting precipitate was further homogenized in 10 mL of 0.25 M sucrose. Thus, a lysosome fraction was obtained,
(§3) The lysosome fraction was diluted with 0.25M sucrose containing 0.336 of Triton X-100 for the use in the measurement of cathepsin L activity.
To 0.25 mL of a solution (pH: 5.5) containing 340 mM sodium acetate, 60 mM acetic acid, 4 mM EDTA and 8 mM dithiothreitol were added 0.1mL of the lysosome fraction, 5 μL of the test compound solution, and 0.545 mL of distilled water. The mixture was pre-incubated at 30° C. for 15 minutes. Thereafter, 0.1 mL of 50 μM by carbobenzoxy-L-phenylalanyl-L-arginine-4-methylcoumaryl-7-amide (Z-Phe-Arg-MCA) solution was added, and the reaction was started. The reaction was performed at 30° C. for 20 minutes, and then terminated by addition of 1mL of an aqueous solution (pH. 4.3) containing 100 mM sodium mono-chloroacetate, […] and 70 mM acetic acid The finally obtained solution was subjected to measurement of fluorescence strength (excitation wave-length: 380 nm, emission wavelength: 460 nm.
The Z-Phe-Arg-MCA is also decomposed by cathepsin B which is contained in the lysosome fraction.

Cathepsin B = target: T2, Cathepsin B (Rattus norvegicus, UniProt P00787); assay: Cathepsin B inhibitory action (lysosome fraction, Z-Arg-Arg-MCA); assay type: biochemical; conditions: pH 6.0, 30° C., read-out: Cathepsin Inhibition (IC50) Cathepsin B
T2 construct: from tissue; host or cells: liver of male Wistar rat, crude lysosome fraction
Protocol: as §1, §2, §3
To 0.25 mL of a solution (pH: 6.0) containing 352 mM KH2PO4, 48 mM Na2HPO4, 5.32 mM EDTA·2Na and 10 mM L-cysteine were added 0.1 mL of the lysosome fraction, 5 μL of the test compound solution, and 0.545 mL of distilled water. The mixture was pre-incubated at 30° C. for 15 minutes. Thereafter, the reaction was started by the addition of 0.1 mL of a solution of 50 μM carbobenzoxy-L-arginine-L-arginine-4-methylcoumaryl-7-amide (Z-Arg-Arg-MCA, substrate). The reaction was performed at 30° C. for 20 minutes, and then terminated by addition of 1 mL of an aqueous solution (pH: 4.3) containing 100 mM sodium mono-chloroacetate, 30 mM sodium acetate and 70 mM acetic acid. The finally obtained solution was subjected to measurement of fluorescence strength (excitation wavelength: 380 nm, emission wavelength: 460 nm).

[1] = test system: rats grown with low calcium feed (bone resorption); assay: Bone resorption inhibitory activity by decrease of plasma calcium concentration in rats grown with low calcium feed; assay type: in vivo, rat; conditions: Wistar rats on low calcium feed, 6 hours after administration, vs non-administration group
Protocol: (1) If rats are grown with low calcium feed, its bone weight decreases. This is because calcium is left from bone by dissolution in blood (i.e., bone resorption) so as to maintain the calcium concentration in blood at a normal level. Therefore, compounds inhibiting bone resorption in the model adopted in this experiment inhibit dissolution of calcium in blood from bone to reduce the plasma calcium concentration. Thus, compounds of the invention were evaluated in their bone resorption inhibitory activity by measuring decrease of plasma calcium concentration in the following experiment (according to J. M. Delaisse et al., Biochem. Biophys. Res. Commun., 125, 441 (1984)
Rats of Wistar strain (age: 5 to 6 weeks) were grown with a low calcium content feed (Ca: 0.02S, available from Oriental Yeast Industries, Co., Ltd.) for one week to give bone resorption-enhanced condition A test compound was dissolved in aqueous 1 nethylcellulose solution (when the test compound was-hydrophobic, Tween 20, nonionic-surfactant, was added), and administered orally to the rat in a dosage of 0.2 mL/100 g (weight of rat) At 6 hours after the administration, blood was taken from tail vein of the rat Then, the plasma calcium concentration was measured by OCPC method,
The plasma calcium concentration decreasing activity (Ca decrease rate) of the test compound was calculated by the following equation:
Ca decrease rate (%)=100×(plasma calcium concentration at 6 hours after administration of test compound)−(plasma calcium concentration at the same time in non-administration group)/(plasma calcium concentration at the same time in non-administration group)

Rat adjuvant arthritis = assay: Action on rat adjuvant arthritis (hind paw volume); assay type: in vivo; conditions: Wistar rats, 300 mg/kg orally once a day for 21 days, untreated hind paw, significant vs control, risk <1%
Protocol: Rat adjuvant arthritis which is considered as a model of rheumatoid arthritis of human being was employed for evaluation of the compound of the invention.
Male rats of Wistar strain (age: 5 weeks) were sensitized by subcutaneous injection of Mycobacterium Butyricum which was suspended in liquid paraffin into the right hind paw. From the next day, a test compound (the compound of the aforementioned Example 5) was orally administered at a dosage of 300 mg/kg once a day for 21 days (administration group: 8 rats). After the last administration was complete, a volume of the untreated hind paw was measured by means of Volume Differential Meter and compared with that of Control group (8 rats, non-administration group) In addition, a non-adjuvant treatment group (normal group: 8 rats) was subjected to the same measurement. Inhibition of expansion of the hind paw by the test compound (Inhibition rate) was calculated by the following equation:
Inhibition rate (%)=100×(administration group−control group)/(normal group−control group)

ovariectomized rats = assay: Action on ovariectomized rats (postmenopausal osteoporosis model), bone density by p-QCT; assay type: in vivo, rat; conditions: ovariectomized SD female rats, 300 mg/kg once a day for 4 weeks; average ± SD; control 543.7 ± 31.4, false operation 658.8 ± 46.3; P < 0.01 vs control
Protocol: The ovariectomized rats were employed as models of postmenopausal osteoporosis, for evaluating the compound of the invention. (2) Experimental Procedures
The ovaries on both sides were removed surgically in SD female rats (age; 13 weeks). From the next day, a test compound (compound of Example 5) was administered at 300 mg/kg to the rats once a day for 4 weeks (administration group: 8 rats). After the last administration was complete, the fourth vertebrae lumbale was taken out, and the total bone density was measured by means of p-QCT (Peripheral Bone Density-Measuring Apparatus) and compared with the bone density of the control group (7 rats). In addition, rats treated by false-operation were also subjected to the same measurement, […]

[2] = Rattus norvegicus, po, 15 mg/kg p.o., read-out: Measured Plasma Ca Concentration (Ca decrease rate)

T1 sequence (P07154 114-334): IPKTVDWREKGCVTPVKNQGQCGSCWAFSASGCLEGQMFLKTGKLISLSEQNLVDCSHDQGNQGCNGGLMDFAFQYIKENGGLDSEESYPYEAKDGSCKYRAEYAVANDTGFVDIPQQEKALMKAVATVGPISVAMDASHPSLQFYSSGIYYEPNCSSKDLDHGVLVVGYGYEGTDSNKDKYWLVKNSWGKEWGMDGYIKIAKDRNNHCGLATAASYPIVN
T2 sequence (P00787 80-333): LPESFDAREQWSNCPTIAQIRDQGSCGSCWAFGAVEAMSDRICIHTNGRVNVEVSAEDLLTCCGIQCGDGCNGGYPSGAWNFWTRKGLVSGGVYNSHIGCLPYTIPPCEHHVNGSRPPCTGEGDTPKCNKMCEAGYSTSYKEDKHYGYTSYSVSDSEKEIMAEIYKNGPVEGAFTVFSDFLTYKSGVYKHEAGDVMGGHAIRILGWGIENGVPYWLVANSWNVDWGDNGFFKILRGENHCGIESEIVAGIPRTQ

| IC50 (Cathepsin L) [nM] | IC50 (Cathepsin B) [nM] | Compound | change in vivo at 15 mg/kg [1, 2] [%] | further results |
| --- | --- | --- | --- | --- |
| 6.9 | 28 | CC(C)C[C@@H](COCc1ccccc1)NC(=O)[C@H]1O[C@@H]1C(=O)O [Example 24, Sodium (2S,3S)-3-[[1-(S)-benzyloxymethyl-3-methylbutyl]-carbamoyl]oxirane-2-carboxylate] |  |  |
| 94 | 100 | CC(C)C[C@@H](CO)NC(=O)[C@H]1O[C@@H]1C(=O)O [Example 12, (2S,3S)-3-[[1-(S)-hydroxymethyl-3-methylbutyl]carbamoyl]-oxirane-2-carboxylic Acid] |  |  |
| 3.3 | 41 | CC(C)C[C@H](NC(=O)[C@H]1O[C@@H]1C(=O)O)[C@H](OCc1ccccc1)c1ccccc1 [Example 22, (2S,3S)-3-[[1-(S)-[α-(R)-(benzyloxy)benzyl]-3-methyl-butyl]carbamoyl]oxirane-2-carboxylic Acid] |  |  |
| 57 | 210 | CCC(C)[C@H](NC(=O)[C@H]1O[C@@H]1C(=O)O)[C@H](O)c1ccccc1 (stereo partly drawn) [Example 9, (2S,3S)-3-[[1-(S)-[α-(R)-hydroxybenzyl]-2-methylbutyl]carbamoyl]oxirane-2-carboxylic acid] |  |  |
| 11 |  | O=C(O)[C@H]1O[C@@H]1C(=O)N[C@H](COCc1ccccc1)Cc1ccccc1 [Example 23] |  |  |

The next lines start with the molecule.

| Compound | IC50 (Cathepsin L) [nM] | IC50 (Cathepsin B) [nM] | change in vivo at 15 mg/kg [1, 2] [%] | further results |
| --- | --- | --- | --- | --- |
| CC(C)C[C@H](NC(=O)[C@H]1O[C@@H]1C(=O)O)[C@H](O)c1ccccc1 [Example 2, (2S,3S)-3-[[1-(S)-[α-(R)-hydroxybenzyl]-3-methylbutyl]-carbamoyl]oxirane-2-carboxylic acid] | 11 | 120 |  |  |
| CCOC(=O)[C@H]1O[C@@H]1C(=O)N[C@@H](CC(C)C)[C@H](OC(C)=O)c1ccccc1 [Example 13, Ethyl (2S,3S)-3-[[1(S)-[α-(R)-acetoxybenzyl]-3-methyl-butyl]carbamoyl]oxirane-2-carboxylate] |  |  | -14.7 |  |
| CCOC(=O)[C@H]1O[C@@H]1C(=O)N[C@H](COCc1ccccc1)CC(C)C [Example 17, Ethyl (2S,3S)-3-[[1-(S)-benzyloxymethyl-3-methylbutyl]-carbamoyl]oxirane-2-carboxylate] |  |  | -15.4 |  |
| CCOC(=O)[C@H]1O[C@@H]1C(=O)N[C@H](COCC(C)C)CC(C)C [Example 18a, Ethyl (2S,3S)-3-[[1-(S)-isobutoxyrethyl-3-methylbutyl]-carbamoyl]oxirane-2-carboxylate] |  |  |  | Measured Plasma Ca Concentration (Ca decrease rate) ([1]; 15 mg/kg p.o.): −24.5% |
| CCOC(=O)[C@H]1O[C@@H]1C(=O)N[C@@H](CC(C)C)C(=O)c1ccccc1 [Example 7, Ethyl (2S,3S)-3-[[1-(S)-benzoyl-3-methylbutyl]carbamoyl]-oxirane-2-carboxylate] |  |  | -13.6 |  |
| CCOC(=O)[C@H]1O[C@@H]1C(=O)N[C@@H](CC(C)C)[C@H](OC)c1ccccc1 [Example 5, Ethyl (2S,3S)-3-[[1-(S)-[α-(R)-methoxybenzyl]-3-methyl-butyl]carbamoyl]oxirane-2-carboxylate] |  |  | -20.4 | Inhibition of expansion of the hind paw (Inhibition rate) (Rat adjuvant arthritis): 42%; melting point: 108 to 109 °C; Total bone density of the fourth vertebrae lumbale (ovariectomized rats): 617.8 ± 37.9 mg/mL |
| CCOC(=O)[C@H]1O[C@@H]1C(=O)N[C@@H](CC(C)C)[C@H](O)c1ccccc1 [Example 1a, Ethyl (2S,3S)-3-[[1-(S)-[α-(R)-hydroxybenzyl]-3-methyl-butyl]carbamoyl]oxirane-2-carboxylate] |  |  | -12.5 |  |
| CO[C@H](c1ccccc1)[C@H](CC(C)C)NC(=O)[C@H]1O[C@@H]1C(=O)O [Example 11, (2S,3S)-3-[[1-(S)-[α-(R)-methoxybenzyl]-3-methylbutyl]-carbamoyl]oxirane-2-carboxylic Acid] | 18 | 85 | -17.3 |  |
| CO[C@H](c1ccccc1)[C@H](CC(C)C)NC(=O)[C@H]1O[C@@H]1C(=O)OC(C)C [Example 14, Isopropyl (2S,3S)-3-[[1-(S)-[α-(R)-methoxybenzyl]-3-methylbutyl]carbamoyl]oxirane-2-carboxylate] |  |  |  | change in vivo at 5 mg/kg ([1]; Rattus norvegicus, po, 5 mg/kg p.o., read-out: Measured Plasma Ca Concentration (Ca decrease rate)): -9.9% |
| CCOC(=O)[C@H]1O[C@@H]1C(=O)N[C@H](C(=O)c1ccccc1)C(C)C [Example 8, Ethyl (2S,3S)-3-[[1-(S)-benzoyl-2-methylpropyl]-carbamoyl]oxirane-2-carboxylate] |  |  | -15.8 |  |
